Results: patent EP0934745B1, “Use of androsterone derivatives for inhibiting DNA binding of ap-1 and airway smooth muscle proliferation” (CHARLOTTE-MECKLENBURG HOSPITAL doing business as Carolinas …, priority 1998, dated 1999)

Experiments:
[1] = tested on: BEAS-2B cells; test: Interleukin-8 secretion by cultured human respiratory epithelium (ELISA); assay type: cell-based; conditions: 1 hr pretreatment
Experimental: J. Physiol. […] J. Physiol. […] Statistical Analysis. […] Significance was assumed at p < 0.05.
After 24 hours (for TNF stimulated cells) or 6 hours (for ROFA stimulated cells) media was collected and centrifuged to remove debris. […] Results are means ± standard errors of 4-6 experiments per treatment group. DMSO vehicle, as an antioxidant, reduces IL-8 secretion (a known effect) but BrEA inhibits much more profoundly.

[2] = tested on: c-fos; test: Expression of c-fos protein (immunoblot) and mRNA (RT-PCR) after FBS stimulation; assay type: cell-based, rat; conditions: pretreated 2 hours with 10 µM (Figures 7A-7C)
Experimental: To determine if 16α-BrEA impaired expression of early response genes important for cellular proliferation, confluent 75-cm^2 Petri dishes of airway smooth muscle cells were growth arrested by incubation for 24 hours in DMEM with 0.5% FBS. Monolayers were pretreated 2 hours with 10 µM 16α-BrEA or DMSO vehicle, and stimulated by exposure to DMEM with 10% FBS for 30 minutes. Cells were then lysed and c-fos mRNA was measured by the reverse transcriptase-polymerase chain reaction, as described below. To study whether levels of c-fos protein were affected, confluent monolayers on 6-well plates were growth arrested for 24 hours in DMEM with 0.5% FBS. Cells were then pretreated 2 hours with 16α-BrEA or DMSO vehicle and stimulated with 10% FBS in DMEM for 15, 30 and 60 minutes. Cells were then lysed and c-fos protein was assayed by immunoblotting as described below.
For measurement of c-fos protein, monolayers were placed on ice, washed twice with cold DPBS, scraped into 0.5 ml boiling buffer (10% [vol/vol] glycerol and 2% [wt/vol] sodium dodecyl sulfate [SDS] in 83 mM Tris, pH 6.8) and sonicated. Aliquots were removed for protein determination, bromophenol blue and β-mercaptoethanol were added and lysates were boiled and stored as outlined above. […]

[3] = tested on: guinea pig main bronchi; test: Bronchial smooth muscle contraction in vitro (isolated bronchial rings, isometric tension)
Experimental: Effect on bronchial smooth muscle contraction in vitro. To study the effect of DHEA on bronchial smooth muscle in vitro, male Hartley guinea-pigs (Charles River Laboratories, Inc., Wilmington, MA) were anaesthetized with sodium pentobarbital (pentobarbital sodium (Abbott Laboratories) (200 mg/kg intraperitoneally). Then trachea and lungs were quickly removed and immersed in oxygenated Krebs-Henseleit solution (K-H) containing (mM) : 115 NaCl, 25 NaHCO3, 1.38 NaH2PO4, 2.5 KCl, 2.46 MgSO4, 1.9 CaCl2, and 5.56 dextrose, aerated with 95% O2 and 5% CO2.
The main bronchi were dissected free of loose connective tissue, under a stereo-microscope (Olympus SZH10), and bronchial rings were obtained and mounted in double jacketed organ baths filled with K-H at 37°C and continuously aerated with a 95% O2 and 5% CO2 gas mixture, which produced a pH of 7.4. The bronchial rings were connected to force displacement transducers (Grass FTO3) for continuous recording of isometric tension on paper polygraph (Gould RS3800) and allowed to equilibrate for 90 minutes. After the equilibration period 1mM acetylcholine was administered and the response monitored.
Bronchial rings were partially contracted with 3·10^-2 M KCl or 10^-5 M acetylcholine (ACh) , then the effect of DHEA was studies by increasing cumulatively its concentration at log intervals from 10^-3 to 10^-4 M and measuring the changes produced in active tension.
A concentration of 3 x 10^-2 M KCl was chosen on the basis of preliminary experiments, in which from concentration-response curves to KCl (10^-2 - 10^-1 M) it was determined that the concentration of KCl eliciting 50% of the maximum response (KCl-EC50) in the experimental set up. […] Similarly, 10^-5 M acetylcholine (ACh) was chosen as the concentration of ACh eliciting 50% of the maximum response.
Since DHEA was dissolved in dimethyl sulfoxide (DMSO), four additional rings were contracted with 3 x 10^-2 M KCl (n=5) or 10^-5 M ACh (n=5) to determine whether this vehicle produced any alteration of the active force. […] The maximum final concentration of DMSO in the organ bath was 0.15%.
Three of the strips used to study DHEA were rinsed with fresh K-H at the end of the experiment, treated with 1 mM acetylcholine, and the response monitored.
In a second set of experiments either a single dose of 10^-5 M ACh was administered or a concentration-response curve to ACh was performed in the presence or absence of 10^-4 M DHEA (administered 15 minutes before ACh). The single dose of ACh was used to measure the rate of tension development, while the concentration-response study was used to evaluate whether DHEA affected sensitivity to ACh.

`C[C@]12CC[C@H](O)C[C@@H]1CC[C@@H]1[C@@H]2CC[C@]2(C)C(=O)[C@H](Br)C[C@@H]12` [16α-BrEA, 16α-bromoepiandrosterone] was tested, and the IL-8 ([1]; ROFA Stimulated BEAS Cells (ROFA 50 µg/ml, 6 hr), 25 µM, ROFA + DMSO 410 ± 18) was 123 ± 5 pg/mL, the IL-8 ([1]; TNF Stimulated BEAS Cells (TNFα 40 ng/ml, 24 hr), 2 µM, TNF + DMSO 93 ± 14) was 104 ± 31 pg/mL and the IL-8 ([1]; TNF Stimulated BEAS Cells (TNFα 40 ng/ml, 24 hr), 10 µM, TNF + DMSO 93 ± 14) was 52 ± 18 pg/mL. For the same compound, the IL-8 ([1]; TNF Stimulated BEAS Cells (TNFα 40 ng/ml, 24 hr), 50 µM, TNF + DMSO 93 ± 14) was 27 ± 2 pg/mL and the “stimulation of c-fos protein or mRNA in response to 10% FBS” value [2] was “did not reduce”.

In the case of `C[C@]12CC[C@H](O)CC1=CC[C@@H]1[C@@H]2CC[C@]2(C)C(=O)CC[C@@H]12` [DHEA, dehydroepiandrosterone], the “rate of tension development in response to 10^-5 ACh” value ([3]; 10^-4 M DHEA administered 15 minutes before ACh, 2.27±0.82 without DHEA) is reported as 1.85±0.85, the “relaxation of the ACh-induced contraction” value ([3]; 10^-4 M DHEA, bronchi partially contracted with 10^-5 M ACh, n=5) is reported as 37.98±4.76% and the EC50 ([3]; Cavia porcellus, read-out: concentration of DHEA which produced 50% relaxation of the KCl-induced contraction) is reported as 21.6 µM. For the same compound, the “relaxation of the KCl-induced contraction” value ([3]; maximum concentration of DHEA, bronchi partially contracted with 3 x 10^-2 M KCl, after subtraction of the reduction of force due to time-vehicle, n=6) was 76.28±6.96% and the “smooth muscle functionality (response to 1 mM acetylcholine after rinsing)” value ([3]; three strips rinsed with fresh K-H at the end of the DHEA experiment) was “not altered”.
